# According to patent US11458123B2 (Arvinas, Inc., priority 2016, dated 2022):
# System: tau protein
# Experiment: Tau protein in vitro degradation assay (Western blot, Tau-13 antibody)
# Format: cell-based, human
# Conditions: SK-N-SH cells; 72 hours of incubation; tested at 300 nM, 100 nM, 33 nM and 11 nM; Western blot, Tau-13 antibody
# Summary of the method: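 SK-N-SH cells, seeded ≥18 h beforehand, were incubated 72 h with tau PROTACs at 1000, 300 and 100 nM or at 300, 100, 33 and 11 nM. Lysates in protease-inhibitor buffer were resolved by SDS-PAGE; tau quantified by Western blot with Tau-13 antibody recognising all human tau forms.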
SMILES,Degradation activity* (highest amount of degradation observed at any dosage; tau protein remaining),Degradation activity (tau protein remaining; highest amount of degradation observed at any dosage)
"O=C1CCC(N2C(=O)c3ccc(OCCOCCOCCOCCOCCN4CCC(c5ccc6c(c5)[nH]c5ccncc56)CC4)cc3C2=O)C(=O)N1 (centres unmarked) [Compound 57, 5-((14-(4-(5H-pyrido[4,3-b]indol-7-yl)piperidin-1-yl)-3,6,9,12-tetraoxatetradecyl)oxy)-2-(2,6-dioxopiperidin-3-yl)isoindoline-1,3-dione]",C (>80% tau protein remaining after 72 hours of incubation with the test compound),
"O=C1CCC(N2C(=O)c3ccc(N4CCN(CCN5CCC(O[C@H]6C[C@H](Oc7ccc(-c8ccc9c(c8)[nH]c8ccncc89)cn7)C6)CC5)CC4)cc3C2=O)C(=O)N1 (some centres unmarked) [Compound 66, 5-(4-(2-(4-((1r,3r)-3-((5-(5H-pyrido[4,3-b]indol-7-yl)pyridin-2-yl)oxy)cyclobutoxy)piperidin-1-yl)ethyl)piperazin-1-yl)-2-(2,6-dioxopiperidin-3-yl)isoindoline-1,3-dione]",C (>80% tau protein remaining after 72 hours of incubation with the test compound),
"Cn1c2ccncc2c2ccc(-c3ccc(O[C@H]4C[C@H](OCCOCCCOCC5CN(c6ccc7c(c6)C(=O)N(C6CCC(=O)NC6=O)C7=O)C5)C4)nc3)cc21 (some centres unmarked) [Compound 191, 2-(2,6-dioxopiperidin-3-yl)-5-(3-((3-(2-((1r,3r)-3-((5-(5-methyl-5H-pyrido[4,3-b]indol-7-yl)pyridin-2-yl)oxy)cyclobutoxy)ethoxy)propoxy)methyl)azetidin-1-yl)isoindoline-1,3-dione]",,A (≤50% tau protein remaining after 72 hours of incubation with the test compound)
"O=C1CCC(N2C(=O)c3ccc(N4CCN(CCCO[C@H]5C[C@@H](Oc6ccc(-c7ccc8c(c7)[nH]c7ccncc78)cn6)C5)CC4)cc3C2=O)C(=O)N1 (some centres unmarked) [Compound 53, 5-(4-(3-((1s,3s)-3-((5-(5H-pyrido[4,3-b]indol-7-yl)pyridin-2-yl)oxy)cyclobutoxy)propyl)piperazin-1-yl)-2-(2,6-dioxopiperidin-3-yl)isoindoline-1,3-dione]",C (>80% tau protein remaining after 72 hours of incubation with the test compound),
"Cn1c2ccncc2c2ccc(-c3ccc(O[C@H]4C[C@H](OCCOCCOCCOCCOc5ccc6c(c5)C(=O)N(C5CCC(=O)NC5=O)C6=O)C4)nc3)cc21 (some centres unmarked) [Compound 70, 2-(2,6-dioxopiperidin-3-yl)-5-(2-(2-(2-(2-((1r,3r)-3-((5-(5-methyl-5H-pyrido[4,3-b]indol-7-yl)pyridin-2-yl)oxy)cyclobutoxy)ethoxy)ethoxy)ethoxy)ethoxy)isoindoline-1,3-dione]",A (≤50% tau protein remaining after 72 hours of incubation with the test compound),
"Cn1c2ccncc2c2ccc(-c3ccc(OCCCCCOCCCCCC4CCN(c5ccc6c(c5)C(=O)N(C5CCC(=O)NC5=O)C6=O)CC4)nc3)cc21 (centres unmarked) [Compound 75, 2-(2,6-dioxopiperidin-3-yl)-5-(4-(5-((5-((5-(5-methyl-5H-pyrido[4,3-b]indol-7-yl)pyridin-2-yl)oxy)pentyl)oxy)pentyl)piperidin-1-yl)isoindoline-1,3-dione]",C (>80% tau protein remaining after 72 hours of incubation with the test compound),
"Cn1c2ccncc2c2ccc(-c3ccc(O[C@H]4C[C@H](OCCOCCOCCOCC5CN(c6ccc7c(c6)C(=O)N(C6CCC(=O)NC6=O)C7=O)C5)C4)nc3)cc21 (some centres unmarked) [Compound 206, 2-(2,6-dioxopiperidin-3-yl)-5-(3-((2-(2-(2-((1r,3r)-3-((5-(5-methyl-5H-pyrido[4,3-b]indol-7-yl)pyridin-2-yl)oxy)cyclobutoxy)ethoxy)ethoxy)ethoxy)methyl)azetidin-1-yl)isoindoline-1,3-dione]",,B (≤80% and >50% tau protein remaining after 72 hours of incubation with the test compound)
"Cn1c2ccncc2c2ccc(-c3ccc(C#CCN4CCN(CCCOC5CN(c6ccc7c(c6)C(=O)N(C6CCC(=O)NC6=O)C7=O)C5)CC4)nc3)cc21 (centres unmarked) [Compound 76, 2-(2,6-dioxopiperidin-3-yl)-5-(3-(3-(4-(3-(5-(5-methyl-5H-pyrido[4,3-b]indol-7-yl)pyridin-2-yl)prop-2-yn-1-yl)piperazin-1-yl)propoxy)azetidin-1-yl)isoindoline-1,3-dione]",C (>80% tau protein remaining after 72 hours of incubation with the test compound),
"Cn1c2ccncc2c2ccc(-c3ccc(O[C@H]4C[C@H](Oc5ccnc(OCCCCCCOc6ccc7c(c6)C(=O)N(C6CCC(=O)NC6=O)C7=O)c5)C4)nc3)cc21 (some centres unmarked) [Compound 109, 2-(2,6-dioxopiperidin-3-yl)-5-((6-((4-((1r,3r)-3-((5-(5-methyl-5H-pyrido[4,3-b]indol-7-yl)pyridin-2-yl)oxy)cyclobutoxy)pyridin-2-yl)oxy)hexyl)oxy)isoindoline-1,3-dione]",C (>80% tau protein remaining after 72 hours of incubation with the test compound),
"Cn1c2ccncc2c2ccc(-c3ccc(OCCCCOCCCCOC4CC5(C4)CN(c4ccc6c(c4)C(=O)N(C4CCC(=O)NC4=O)C6=O)C5)nc3)cc21 (centres unmarked) [Compound 100, 2-(2,6-dioxopiperidin-3-yl)-5-(6-(4-(4-((5-(5-methyl-5H-pyrido[4,3-b]indol-7-yl)pyridin-2-yl)oxy)butoxy)butoxy)-2-azaspiro[3.3]heptan-2-yl)isoindoline-1,3-dione]",C (>80% tau protein remaining after 72 hours of incubation with the test compound),

# Same assay, conditions: SK-N-SH cells; 72 hours of incubation; tested at 1000 nM, 300 nM and 100 nM
row,SMILES,"Activity* (highest amount of degradation observed at any dosage, as tau protein remaining)"
1,"Cc1ncsc1-c1ccc([C@H](C)NC(=O)[C@@H]2C[C@@H](O)CN2C(=O)[C@@H](NC(=O)COCCOCCOCC(=O)N2CCN(c3ccn4c(n3)nc3ccccc34)CC2)C(C)(C)C)cc1 [Compound 17, (2S,4R)-1-((S)-14-(4-(benzo[4,5]imidazo[1,2-a]pyrimidin-2-yl)piperazin-1-yl)-2-(tert-butyl)-4,14-dioxo-6,9,12-trioxa-3-azatetradecanoyl)-4-hydroxy-N—((S)-1-(4-(4-methylthiazol-5-yl)phenyl)ethyl)pyrrolidine-2-carboxamide]",C (>80% tau protein remaining after 72 hours of incubation with the test compound)
2,"Cc1ncsc1-c1ccc([C@H](C)NC(=O)[C@@H]2C[C@@H](O)CN2C(=O)[C@@H](NC(=O)COCCOCCOCCOc2ccc3nc(-c4ccc(N(C)C)cc4)ccc3c2)C(C)(C)C)cc1 [Compound 30, (2S,4R)-1-((S)-2-tert-butyl-14-(2-(4-(dimethylamino)phenyl)quinolin-6-yloxy)-4-oxo-6,9,12-trioxa-3-azatetradecane)-4-hydroxy-N—((S)-1-(4-(4-methylthiazol-5-yl)phenyl)ethyl)pyrrolidine-2-carboxamide]",C (>80% tau protein remaining after 72 hours of incubation with the test compound)
3,Cc1ncsc1-c1ccc(CNC(=O)[C@@H]2C[C@@H](O)CN2C(=O)[C@@H](NC(=O)COCCOCCOCCOCCOc2ccc3nc(-c4ccc(N(C)C)cc4)ccc3c2)C(C)(C)C)cc1 [Compound 31],C (>80% tau protein remaining after 72 hours of incubation with the test compound)
4,"Cc1ncsc1-c1ccc([C@H](C)NC(=O)[C@@H]2C[C@@H](O)CN2C(=O)[C@@H](NC(=O)COCCCCCOc2ccc3nc(-c4ccc(N(C)C)cc4)ccc3c2)C(C)(C)C)cc1 [Compound 38, (2S,4R)-1-((S)-2-(2-(5-(2-(4-(dimethylamino)phenyl)quinolin-6-yloxy)pentyloxy)acetamido)-3,3-dimethylbutanoyl)-4-hydroxy-N—((S)-1-(4-(4-methylthiazol-5-yl)phenyl)ethyl)pyrrolidine-2-carboxamide]",C (>80% tau protein remaining after 72 hours of incubation with the test compound)
5,"Cc1ncsc1-c1ccc(CNC(=O)[C@@H]2C[C@@H](O)CN2C(=O)[C@@H](NC(=O)COCCOCCOCCOCC(O)COc2ccc3nc(-c4ccc(N(C)C)cc4)ccc3c2)C(C)(C)C)cc1 (stereo partly drawn) [Compound 46, (2S,4R)-1-((2S)-2-tert-butyl-18-(2-(4-(dimethylamino)phenyl)quinolin-6-yloxy)-17-hydroxy-4-oxo-6,9,12,15-tetraoxa-3-azaoctadecane)-4-hydroxy-N-(4-(4-methylthiazol-5-yl)benzyl)pyrrolidine-2-carboxamide]",C (>80% tau protein remaining after 72 hours of incubation with the test compound)
6,"O=C1CCC(N2C(=O)c3cccc(NCCOCCOCCOCCOCCOc4ccc(-c5ccc6c(c5)[nH]c5ccncc56)cn4)c3C2=O)C(=O)N1 (centres unmarked) [Compound 4, 4-((14-((5-(5H-pyrido[4,3-b]indol-7-yl)pyridin-2-yl)oxy)-3,6,9,12-tetraoxatetradecyl)amino)-2-(2,6-dioxopiperidin-3-yl)isoindoline-1,3-dione]",A (≤50% tau protein remaining after 72 hours of incubation with the test compound)
7,"Cc1ncoc1-c1ccc([C@H](C)NC(=O)[C@@H]2C[C@@H](O)CN2C(=O)[C@@H](NC(=O)COCCOCCOCCOCC(=O)N2CCN(c3ccn4c(n3)nc3ccccc34)CC2)C(C)(C)C)cc1 [Compound 22, (2S,4R)-1-((S)-17-(4-(benzo[4,5]imidazo[1,2-a]pyrimidin-2-yl)piperazin-1-yl)-2-(tert-butyl)-4,17-dioxo-6,9,12,15-tetraoxa-3-azaheptadecanoyl)-4-hydroxy-N—((S)-1-(4-(4-methyloxazol-5-yl)phenyl)ethyl)pyrrolidine-2-carboxamide]",C (>80% tau protein remaining after 72 hours of incubation with the test compound)
